No end group written: not given here.
What was measured:
[1] = system: Calcium flux in response to BK; experiment: Calcium flux assay, response to BK; format: cell-based; conditions: read-out: IC50 Ca2+ (BK)
Description: (§1) Briefly, mechanically dispersed single cell suspensions of plateau phase cells (7 days after splitting) were suspended in 20 mM HEPES/BSS buffer (20 mM Hepes/140 mM NaCl/5mM KCI/1 mM MgCl2 /5 mM Glucose) adjusted to pH 6,8 at 37° C. The acetoxymethyl ester form of Indo-1 (Indo-AM) at 5 μM was incubated with the cells for 30 min at 37° C. and then diluted with 1:1 with 20 mM HEPES/BSS buffer, pH 7.4 to raise the final pH to 7.1 followed by a second 30-min incubation at 37° C.
(§2) UV excitation (80 mW at 360 nm) was delivered by a model INNOVA 90/5 argon ion laser (Coherent, Palo Alto, Calif.). […] Thus, the ratio of the 410 nm fluorescence/490 nm fluorescence constitutes a measure of the changes in calcium ions liberated form intracellular stores (Endoplasmic reticulum) in response to various stimuli. Viable, loaded cells were distinguished by the machine form debris, dead cells, and unloaded cells by forward angle and 90° light scatter and 490 nm fluorescence. […] Data were collected by the MDADS computer including 410 nm and 490 nm fluorescence intensities and the ratio of 410/490 fluorescence intensity was secured as a function of time. […] The data were analyzed by a program developed by Philip Jewett.

[2] = system: Calcium flux in response to CCK; experiment: Calcium flux assay, response to CCK or gastrin; format: cell-based
Description: as §1, §2

SCLC cell line SHP-77 = experiment: Colorimetric MTT assay, growth of SCLC cell line SHP-77; format: cell-based, human
Description: (§3) The effectiveness of the antagonist compounds in inhibiting cancer cell growth in vitro was determined using a panel of human lung cancer cell lines: SCLC--SHP77, H345 and NSCLC--A549, H450; breast carcinoma McF7, normal human epithelial BEAS and normal human skin fibroblast FS 15 were used to study the specificity and cytotoxicity of the BK antagonist dimers. Cell lines were treated with various concentrations of dimers for 5 to 7 days and cell viability were measured with routine MTT assay. Cells treated with BK dimers were also be evaluated for apoptosis using our newly developed cytometric technique.
Cellular growth and survival was measured by a rapid colorimetric assay, based on the tetrazolium salt MTT, (3-(4,5-dimethylthiazol-2-yl)-2,5-diphenyl tetrazolium bromide), developed by Mosmann (J. of Immun. Methods, 65, 55-63, 1983) with minor modifications. Briefly, 1,000 normal lung fibroblasts or normal epithelial BEAS-2B cells, 1,000 or 5,000 viable NSCLC cell and 10,000 viable SCLC cell were plated in a 100 μl volume of growth medium in 96 well flat-bottomed microtiter plates. The cells were allowed to recover overnight. Bradykinin antagonists at various concentrations were added to the cells in triplicates and the plates were incubated at 37° C., 5% CO2 with 100% humidity. […] Absorbance at 490 nm was immediately determined using a scannning multiwell plate reader. […]

SCLC cell lines [3] = experiment: Growth of SCLC cell lines (MTT assay); format: cell-based, human; conditions: result in words
Description: as §3
Cellular growth and survival was measured by a rapid colorimetric assay, based on the tetrazolium salt MTT, (3-(4,5-dimethylthiazol-2-yl)-2,5-diphenyl tetrazolium bromide), developed by Mosmann (J. of Immun. Methods, 65, 55-63, 1983) with minor modifications. Briefly, 1,000 normal lung fibroblasts or normal epithelial BEAS-2B cells, 1,000 or 5,000 viable NSCLC cell and 10,000 viable SCLC cell were plated in a 100 μl volume of growth medium in 96 well flat-bottomed microtiter plates. The cells were allowed to recover overnight. Bradykinin antagonists at various concentrations were added to the cells in triplicates and the plates were incubated at 37° C., 5% CO2 with 100% humidity. […] Absorbance at 490 nm was immediately determined using a scannning multiwell plate reader.

SCLC cell lines [4] = experiment: Apoptosis in SCLC / lung cancer cells; format: cell-based, human; conditions: inhibitory concentrations; data not shown
Stability in plasma = format: in vitro ADME
rat uterus = conditions: agonist reference value; cited from earlier work
guinea pig ileum = conditions: agonist reference value; cited from earlier work
[5] = system: intracellular Ca++ release, human lung cancer cell lines; conditions: Bunn et al. 1992; cited from earlier work

| Compound | IC50 [1] [nM] | % Inhibition CCK Ca2+ [2] [%] | effect on SCLC growth (SCLC cell line SHP-77; concentration up to 40 μM, SHP-77) | IC50 (SCLC cell line SHP-77; growth of SCLC cell line SHP-77) [nM] | growth inhibition, SCLC cell lines (SCLC cell lines [3]) | apoptotic response in SCLC cell lines (SCLC cell lines [4]) | stable in plasma (Stability in plasma) | half-life (Stability in plasma; stability in plasma, read-out: Plasma t1/2) [h] | pD2 (negative logarithm of the dose of bradykinin that causes half-maximal contraction) (rat uterus) | pD2 (negative logarithm of the dose of bradykinin that causes half-maximal contraction) (guinea pig ileum) | stimulation of intracellular Ca++ release [5] |
| --- | --- | --- | --- | --- | --- | --- | --- | --- | --- | --- | --- |
| NC(N)=NCCC[C@@H](N)C(=O)N[C@@H](CCCN=C(N)N)C(=O)N1CCC[C@H]1C(=O)N1C[C@H](O)C[C@H]1C(=O)NCC(=O)N[C@@H](Cc1cccs1)C(=O)N[C@@H](CO)C(=O)N1Cc2ccccc2C[C@@H]1C(=O)N1[C@H](C(=O)N[C@@H](CCCN=C(N)N)C(=O)O)C[C@@H]2CCCC[C@@H]21 [Compound B116] | 10 | 0 | little effect | > 40000 | no growth inhibition | no growth inhibition or apoptotic response | stable in plasma | > 24 | – | – | – |
| RPPGFSPFR [bradykinin, Arg^1 -Pro^2 -Pro^3 -Gly^4 -Phe^5 -Ser^6 -Pro^7 Phe^8 -Arg^9] | – | – | – | – | – | – | – | – | 7.9 | 7.4 | most potent peptide stimulant of intracellular Ca^++ release |

— patent US5849863A, “Cytolytic bradykinin antagonists” (University of Colorado, priority 1995, dated 1998)
